Assay results from patent publication US20050142160A1, “ACTIVE ATTRACTANT COMPOSITION FOR INSECTS” (priority 2003, published 2005).

How the values were obtained:
[1] = tested on: flies; test: Comparison of muscalure against other fly attractants; format: in vivo; conditions: compared against other fly attractants; no method given
[2] = tested on: houseflies (musca domestica); test: Test-room trap choice experiment, attractants compared with the standard (% of total flies caught); format: in vivo; conditions: for % Catch: Table 3, TMA/Z-9 and the combination; for attractiveness to flies (in words): attractant judged by itself or against a named alternative; for effect on the attractancy of the standard TMA/Z-9 when combined (in words): in combination with trimethylamine and Z-9-tricosene
Procedure: The trimethylamine (TMA) solution was prepared freshly for each experiment by dissolving a known amount of trimethylamine in a solution of sodium bicarbonate in water, to make 6 milliliters total volume. […] Additional attractants were placed in a third jar lid, or otherwise dispersed separately in the lower compartment of the test traps, for comparison against the standard. A testing room approximately 10 feet by 15 feet was furnished with folding tables on which to place the traps. In such a room was placed a total of six traps, two each of the control, the new attractant, and a combination of control+new attractant. Flies were raised from fly pupae, purchased from Beneficial […], California in a separate room under controlled conditions. For each experiment, after setting up the test traps, around 200 flies were introduced into the room for an 18-24 hour period, and observations were made periodically. At the end of each experiment, flies were counted in each trap, and the remaining flies not trapped were counted in order to account for all flies. In most cases, the remaining flies not caught had expired and were found on the floor of the testing suite. The data are reported for each trap as the percentage of the total flies caught, ignoring the flies not caught. It was observed that a percentage of the initially released flies were always weaker than the main population, and would quickly move toward the floor. Thus, only healthy, active flies were caught, since they were still foraging and seeking mating partners. The experiments were repeated daily, randomly rotating the relative positions of traps in the room with respect to their contents, such that positional effects in the room would be averaged out over many repetitions of the experiment. The results of each experiment, one per day, over one to two weeks, were totaled, and the total catch per attractant type were reported as percentage of catch (% catch).

| Compound | attractiveness to flies (in words) [2] | effect on the attractancy of the standard TMA/Z-9 when combined (in words) [2] | further results |
| --- | --- | --- | --- |
| CCCCCCCC/C=C\CCCCCCCCCCCCC [muscalure, Z-9-tricosene] |  |  | attractiveness to flies (in words) [1]: weak fly attractant |
| CCO [Ethanol] | weak attractant | no statistically significant effect on the attractancy of the standard | % Catch ([2]; choice between ethanol): 7% |
| Z-9-epoxytricosene [Attractant Z-9-Epoxy] | no more attractive than Z-9-tricosene |  |  |
| CCCC(=O)O [butyric acid] |  | increases the attractiveness of the attractant combination |  |
| C=CC(O)CCCCC (stereo not drawn) [Attractant 1-octen-3-ol, 1-octen-3-ol] | non-attractive or repellent to flies | lowered the overall relative catch | % Catch ([2]; choice between 1-octen-3-ol): 0% |
| CC(=O)O [Acetic Acid, Acetic acid] | weak attractant | no effect on the attractancy of TMA/Z-9 | % Catch ([2]; choice between acetic acid): 7% |
